Measurements published in ChEMBL document CHEMBL1201862, “PubChem BioAssay data set” (2004).
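These data come from cells grown in 96-well plates and exposed to compound for 48 hours at five concentrations. GI50 = concentration required for 50% inhibition of growth.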 The source made the active and inactive calls. Cut-off read from the data, not from the text of the source: active = GI50 up to about 1.1 µM and inactive = higher.

What was measured:
Experiment in all cases: NCI tumour cell line growth inhibition, 48 h
BT-549 = system: BT-549
DLD-1 = system: DLD-1
DMS-114 = system: DMS-114
DMS-273 = system: DMS-273
LXFL 529 = system: LXFL 529
M19-MEL = system: M19-MEL
SNB-78 = system: SNB-78
XF498 = system: XF498
RXF 631 = system: RXF 631

CCC1(CC)C(=O)NN(C(=O)c2ccc(Cl)cc2)C1=O
GI50 (BT-549): > 100 µM (inactive)

CSC(=S)N(C)NC(=O)c1cccc(C(=O)NN(C)C(=S)SC)n1
GI50 (DLD-1): 27.2 µM (inactive)
GI50 (DMS-114): 1.36 µM (inactive)
GI50 (DMS-273): 14.1 µM (inactive)
GI50 (LXFL 529): 10.4 µM (inactive)
GI50 (M19-MEL): 31 µM (inactive)
GI50 (SNB-78): 27.7 µM (inactive)

CCOP(=O)(OCC)C(C)(CC)NC (stereo unspecified)
GI50 (BT-549): > 100 µM (inactive)

N=C(CCl)NC1CN2CCC1CC2 (stereo unspecified)
GI50 (BT-549): > 100 µM (inactive)

O=C(O)C/C=C/CC(=O)O
GI50 (BT-549): > 100 µM (inactive)

S=C1NCCN1
GI50 (DLD-1): > 100 µM (inactive)
GI50 (DMS-114): > 100 µM (inactive)
GI50 (DMS-273): > 100 µM (inactive)
GI50 (LXFL 529): > 100 µM (inactive)
GI50 (M19-MEL): > 100 µM (inactive)
GI50 (SNB-78): > 100 µM (inactive)
GI50 (XF498): > 100 µM (inactive)

CSc1cc(C(C)(C)C)ccc1C(O)c1ccc(C(C)(C)C)cc1SC
GI50 (DLD-1): 8.36 µM (inactive)
GI50 (DMS-114): 7.69 µM (inactive)
GI50 (DMS-273): 10.9 µM (inactive)
GI50 (LXFL 529): 13.7 µM (inactive)
GI50 (M19-MEL): 10.2 µM (inactive)
GI50 (SNB-78): 15.6 µM (inactive)
GI50 (XF498): 10.8 µM (inactive)

O=C1c2ccccc2-c2c1c(-c1ccc(O)cc1O)nc1ccc3ccccc3c21
GI50 (BT-549): > 100 µM (inactive)

COC(=O)C1=C(C)N(NC(=O)c2ccccc2)C(C)(O)C12CCOC2=O (stereo unspecified)
GI50 (DLD-1): > 100 µM (inactive)
GI50 (DMS-114): > 100 µM (inactive)
GI50 (DMS-273): > 100 µM (inactive)
GI50 (LXFL 529): > 100 µM (inactive)
GI50 (SNB-78): > 100 µM (inactive)
GI50 (XF498): > 100 µM (inactive)

Clc1ccc(-c2nnc3sc4nc5ccccc5c-4nn23)c(Cl)c1
GI50 (BT-549): 28.9 µM (inactive)

CCOC(=O)c1nc2ccc(C(F)(F)F)cc2nc1Nc1cc(OC)c(OC)c(OC)c1
GI50 (BT-549): > 100 µM (inactive)

Cc1nc2ccc(F)cc2c2c1CCS2
GI50 (BT-549): 54.8 µM (inactive)

NC(=O)NCc1c(C(N)=O)ncn1Cc1ccccc1
GI50 (DLD-1): > 100 µM (inactive)
GI50 (DMS-114): > 100 µM (inactive)
GI50 (DMS-273): > 100 µM (inactive)
GI50 (LXFL 529): > 100 µM (inactive)
GI50 (M19-MEL): > 100 µM (inactive)
GI50 (SNB-78): > 100 µM (inactive)
GI50 (XF498): > 100 µM (inactive)

COc1c(-c2nc3ccc(N4CCN(C)CC4)cc3[nH]2)cc(OC)c2[nH]c(COC(C)=O)nc12
GI50 (BT-549): > 100 µM (inactive)

CCCCCc1cc2cc3c(c(O)c2c(=O)[nH]1)C1(CCC3)C(=O)c2c(O)c3c(c(O)c2C1=O)C(=O)C(OC)=CC3=O (stereo unspecified)
GI50 (BT-549): 0.703 µM (active)

CC(=O)O[C@H]1C(=O)[C@@]2(C)[C@H]([C@H](OC(=O)c3ccccc3)[C@]3(O)C[C@H](OC(=O)[C@H](O)[C@@H](NC(=O)c4ccc(N(C)C)cc4)c4ccccc4)C(C)=C1C3(C)C)[C@]1(OC(C)=O)CO[C@@H]1C[C@@H]2O
GI50 (BT-549): 0.0188 µM (active)

CC(=O)N[C@H]1CCCC[C@@H]1OC(C)=O
GI50 (BT-549): > 100 µM (inactive)

CCc1cccc(C)c1NC(=O)C(=O)CC(=O)c1ccc(Cl)s1
GI50 (DLD-1): > 100 µM (inactive)
GI50 (LXFL 529): > 100 µM (inactive)
GI50 (M19-MEL): > 100 µM (inactive)
GI50 (RXF 631): > 100 µM (inactive)
GI50 (SNB-78): > 100 µM (inactive)

CN(C)CCS/C(=N\c1ccccc1)N1CCCCC1
GI50 (DLD-1): 17.3 µM (inactive)
GI50 (DMS-114): 13.5 µM (inactive)
GI50 (DMS-273): 16.7 µM (inactive)
GI50 (LXFL 529): 15.9 µM (inactive)
GI50 (M19-MEL): 17.1 µM (inactive)
GI50 (XF498): 16.1 µM (inactive)

O=C(O)c1ccccc1/N=N/c1c(O)c(S(=O)(=O)O)cc2cc(S(=O)(=O)O)ccc12
GI50 (BT-549): > 100 µM (inactive)

CC(C)CCCC(C)[C@H]1CCC2[C@H]3C(CC[C@@]21C)[C@@]1(C)CCC=C[C@]12C[C@@H]2[C@@H]3O (stereo partly specified)
GI50 (DLD-1): > 100 µM (inactive)
GI50 (DMS-114): > 100 µM (inactive)
GI50 (DMS-273): > 100 µM (inactive)
GI50 (LXFL 529): > 100 µM (inactive)
GI50 (RXF 631): > 100 µM (inactive)
GI50 (SNB-78): > 100 µM (inactive)

Cc1ccc(S(=O)(=O)N/N=C2/CCC3(O)CC2(C)CCC2[C@H]3CC2(C)C)cc1 (stereo partly specified)
GI50 (BT-549): 32.1 µM (inactive)

CC(C)[Si](OCC1CC(C#N)OC(C)(C)O1)(C(C)C)C(C)C (stereo unspecified)
GI50 (DLD-1): 44.4 µM (inactive)
GI50 (DMS-114): > 10 µM (inactive)
GI50 (DMS-273): 19.2 µM (inactive)
GI50 (M19-MEL): 25.2 µM (inactive)
GI50 (SNB-78): 20.5 µM (inactive)
GI50 (XF498): 21 µM (inactive)

C=C1CC[C@@H]2C(C)(C)C(O)CCC2(C)C1COc1ccc2ccc(=O)oc2c1 (stereo partly specified)
GI50 (DLD-1): 15.7 µM (inactive)
GI50 (DMS-114): 15 µM (inactive)
GI50 (DMS-273): 14.3 µM (inactive)
GI50 (LXFL 529): 11.2 µM (inactive)
GI50 (M19-MEL): 18.4 µM (inactive)
GI50 (SNB-78): 19.4 µM (inactive)
GI50 (XF498): 16 µM (inactive)

COc1c(O)c(OC)c2oc(-c3ccc(O)c(O)c3)c(OC)c(=O)c2c1O
GI50 (BT-549): 6.81 µM (inactive)

CC(C)C[C@H](NC(=O)[C@H](Cc1cccc2ccccc12)NS(=O)(=O)c1cccc2cccnc12)B(O)O
GI50 (BT-549): < 0.0306 µM (active)

C=C1CC(Cn2ccc(=O)[nH]c2=O)(c2ccc(-c3ccccc3)cc2)OC1=O (stereo unspecified)
GI50 (BT-549): 1.86 µM (inactive)

O=C1Nc2ccccc2/C1=C\c1c(Cl)n(-c2ccccc2)c2ccccc12
GI50 (BT-549): 5.93 µM (inactive)
